Measurements: ChEMBL document CHEMBL2169795, “Macrocyclic peptoid-Peptide hybrids as inhibitors of class I histone deacetylases” (ACS Med Chem Lett, 2012)
Calls of active or inactive are those of the source. The calls are words filed in the database; no cut-off is given here.

Legend:
Histone deacetylase = experiment: Inhibition of HDAC in human HeLa cell extracts by fluorimetric assay; assay type: protein assay
K562 = experiment: Cytotoxicity against human K562 cells after 72 hrs by XTT assay; assay type: functional; settings: K562, 72 h
[1] = Cytotoxicity against human KYO1 cells after 72 hrs by XTT assay; assay type: functional; settings: KYO1, 72 h
MCF7 = experiment: Cytotoxicity against human MCF7 cells after 72 hrs by XTT assay; assay type: functional; settings: MCF7, 72 h
HeLa = experiment: Cytotoxicity against human HeLa cells after 72 hrs by XTT assay; assay type: functional
[2] = target: T1, Protein deacetylase HDAC6 (Homo sapiens, UniProt Q9UBN7); experiment: Inhibition of human recombinant HDAC6 using Ac-Lys(Ac)-7-amino-4-methylcoumarin as substrate after 30 mins by trypsin-coupled fluorogenic assay
T1 sequence (Q9UBN7 whole entry): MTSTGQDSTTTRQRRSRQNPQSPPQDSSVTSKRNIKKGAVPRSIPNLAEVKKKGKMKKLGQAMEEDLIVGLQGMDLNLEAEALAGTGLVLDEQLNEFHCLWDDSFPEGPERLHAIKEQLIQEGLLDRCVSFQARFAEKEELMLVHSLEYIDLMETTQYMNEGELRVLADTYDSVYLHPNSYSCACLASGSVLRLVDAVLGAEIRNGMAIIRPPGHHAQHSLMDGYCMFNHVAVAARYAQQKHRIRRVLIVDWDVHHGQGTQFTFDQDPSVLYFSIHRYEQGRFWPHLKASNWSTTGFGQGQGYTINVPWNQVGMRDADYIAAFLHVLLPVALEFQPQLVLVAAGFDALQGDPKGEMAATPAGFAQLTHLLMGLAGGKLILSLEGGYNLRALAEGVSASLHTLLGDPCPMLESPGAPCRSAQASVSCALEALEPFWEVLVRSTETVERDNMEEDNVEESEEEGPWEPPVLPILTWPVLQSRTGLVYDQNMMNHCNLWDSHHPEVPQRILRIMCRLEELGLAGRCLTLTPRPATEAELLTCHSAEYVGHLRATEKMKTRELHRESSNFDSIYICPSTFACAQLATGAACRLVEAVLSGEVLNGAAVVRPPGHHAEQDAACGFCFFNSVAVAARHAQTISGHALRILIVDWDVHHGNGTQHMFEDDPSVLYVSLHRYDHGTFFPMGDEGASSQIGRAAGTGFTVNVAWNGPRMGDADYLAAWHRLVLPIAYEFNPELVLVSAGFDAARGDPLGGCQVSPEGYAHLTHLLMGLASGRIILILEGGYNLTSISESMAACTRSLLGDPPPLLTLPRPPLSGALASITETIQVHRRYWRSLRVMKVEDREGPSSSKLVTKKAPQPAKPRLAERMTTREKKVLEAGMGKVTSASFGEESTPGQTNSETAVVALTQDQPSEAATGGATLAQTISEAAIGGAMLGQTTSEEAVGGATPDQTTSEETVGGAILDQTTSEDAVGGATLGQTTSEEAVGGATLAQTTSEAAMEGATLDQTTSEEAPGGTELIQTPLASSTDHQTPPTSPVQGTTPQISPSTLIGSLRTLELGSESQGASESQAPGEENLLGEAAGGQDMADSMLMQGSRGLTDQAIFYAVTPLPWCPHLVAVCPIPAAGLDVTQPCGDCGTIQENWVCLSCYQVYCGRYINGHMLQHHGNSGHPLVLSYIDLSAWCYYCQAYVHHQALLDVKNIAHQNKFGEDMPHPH

Histone deacetylase 8 = target: T2, Histone deacetylase 8 (Homo sapiens, UniProt Q9BY41); experiment: Inhibition of human recombinant HDAC8 using Arg-His-Lys(Ac)-Lys(Ac)-AMC as substrate after 30 mins by trypsin-coupled fluorogenic assay
T2 sequence (Q9BY41 whole entry): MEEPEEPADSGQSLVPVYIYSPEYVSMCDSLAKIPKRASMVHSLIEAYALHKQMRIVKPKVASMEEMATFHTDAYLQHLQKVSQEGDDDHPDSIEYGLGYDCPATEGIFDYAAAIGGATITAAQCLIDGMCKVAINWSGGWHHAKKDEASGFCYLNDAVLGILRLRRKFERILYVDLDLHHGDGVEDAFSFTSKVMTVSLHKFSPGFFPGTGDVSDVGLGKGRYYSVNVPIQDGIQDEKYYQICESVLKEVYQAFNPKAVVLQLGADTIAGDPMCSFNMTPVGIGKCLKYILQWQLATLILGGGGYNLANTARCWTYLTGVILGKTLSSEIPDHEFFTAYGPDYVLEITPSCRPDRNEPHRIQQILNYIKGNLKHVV

Histone deacetylase 2 = Histone deacetylase 2 (Homo sapiens, UniProt Q92769); experiment: Inhibition of human recombinant HDAC2 using Ac-Lys(Ac)-7-amino-4-methylcoumarin as substrate after 30 mins by trypsin-coupled fluorogenic assay
HCT-116 = experiment: Cytotoxicity against human HCT116 cells after 72 hrs by XTT assay; assay type: functional; settings: HCT-116, 72 h
[3] = target: Histone deacetylase 3/Nuclear receptor corepressor 2 (HDAC3/NCoR2) (Homo sapiens, UniProt O15379); experiment: Inhibition of human recombinant HDAC3/NCoR2 using Ac-Lys(Ac)-7-amino-4-methylcoumarin as substrate after 30 mins by trypsin-coupled fluorogenic assay; assay type: protein-complex assay
Histone deacetylase 1 = Histone deacetylase 1 (Homo sapiens, UniProt Q13547); experiment: Inhibition of human recombinant HDAC1 using Ac-Lys(Ac)-7-amino-4-methylcoumarin as substrate after 30 mins by trypsin-coupled fluorogenic assay
[4] = target: T3, Protein deacetylase HDAC6 (Homo sapiens) (UniProt Q9UBN7); settings: Jurkat, 2 to 20 uM
T3 sequence (whole entry): T1 sequence (Q9UBN7 whole entry)
Description: Inhibition of HDAC6 in human Jurkat cells assessed as increase of acetylated alpha-tubulin level at 2 to 20 uM after 24 hrs by Western blot analysis

[5] = target: Histone deacetylase (Homo sapiens) (UniProt Q13547+O15379+Q9UBN7+Q92769+Q9UQL6+Q8WUI4+Q9BY41+Q96DB2+P56524+Q9UKV0+Q969S8); settings: Jurkat, 2 to 20 uM
Description: Inhibition of HDAC in human Jurkat cells assessed as increase of acetylated-histone H3 level at 2 to 20 uM after 24 hrs by Western blot analysis

Histone deacetylase 3/Nuclear receptor corepressor 2 (HDAC3/NCoR2), sequence (O15379 whole entry): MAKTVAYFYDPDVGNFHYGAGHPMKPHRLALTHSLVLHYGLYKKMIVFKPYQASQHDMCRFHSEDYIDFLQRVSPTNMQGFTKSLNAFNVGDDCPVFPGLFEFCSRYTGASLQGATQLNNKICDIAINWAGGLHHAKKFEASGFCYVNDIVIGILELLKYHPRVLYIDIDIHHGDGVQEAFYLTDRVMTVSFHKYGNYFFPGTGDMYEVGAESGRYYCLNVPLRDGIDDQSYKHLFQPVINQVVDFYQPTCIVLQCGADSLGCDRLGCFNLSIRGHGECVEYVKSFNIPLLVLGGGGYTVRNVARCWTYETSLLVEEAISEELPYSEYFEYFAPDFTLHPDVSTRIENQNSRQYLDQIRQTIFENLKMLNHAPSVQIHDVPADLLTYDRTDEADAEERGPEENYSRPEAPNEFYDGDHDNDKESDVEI
Histone deacetylase 3/Nuclear receptor corepressor 2 (HDAC3/NCoR2), sequence (Q9Y618 whole entry, further chain): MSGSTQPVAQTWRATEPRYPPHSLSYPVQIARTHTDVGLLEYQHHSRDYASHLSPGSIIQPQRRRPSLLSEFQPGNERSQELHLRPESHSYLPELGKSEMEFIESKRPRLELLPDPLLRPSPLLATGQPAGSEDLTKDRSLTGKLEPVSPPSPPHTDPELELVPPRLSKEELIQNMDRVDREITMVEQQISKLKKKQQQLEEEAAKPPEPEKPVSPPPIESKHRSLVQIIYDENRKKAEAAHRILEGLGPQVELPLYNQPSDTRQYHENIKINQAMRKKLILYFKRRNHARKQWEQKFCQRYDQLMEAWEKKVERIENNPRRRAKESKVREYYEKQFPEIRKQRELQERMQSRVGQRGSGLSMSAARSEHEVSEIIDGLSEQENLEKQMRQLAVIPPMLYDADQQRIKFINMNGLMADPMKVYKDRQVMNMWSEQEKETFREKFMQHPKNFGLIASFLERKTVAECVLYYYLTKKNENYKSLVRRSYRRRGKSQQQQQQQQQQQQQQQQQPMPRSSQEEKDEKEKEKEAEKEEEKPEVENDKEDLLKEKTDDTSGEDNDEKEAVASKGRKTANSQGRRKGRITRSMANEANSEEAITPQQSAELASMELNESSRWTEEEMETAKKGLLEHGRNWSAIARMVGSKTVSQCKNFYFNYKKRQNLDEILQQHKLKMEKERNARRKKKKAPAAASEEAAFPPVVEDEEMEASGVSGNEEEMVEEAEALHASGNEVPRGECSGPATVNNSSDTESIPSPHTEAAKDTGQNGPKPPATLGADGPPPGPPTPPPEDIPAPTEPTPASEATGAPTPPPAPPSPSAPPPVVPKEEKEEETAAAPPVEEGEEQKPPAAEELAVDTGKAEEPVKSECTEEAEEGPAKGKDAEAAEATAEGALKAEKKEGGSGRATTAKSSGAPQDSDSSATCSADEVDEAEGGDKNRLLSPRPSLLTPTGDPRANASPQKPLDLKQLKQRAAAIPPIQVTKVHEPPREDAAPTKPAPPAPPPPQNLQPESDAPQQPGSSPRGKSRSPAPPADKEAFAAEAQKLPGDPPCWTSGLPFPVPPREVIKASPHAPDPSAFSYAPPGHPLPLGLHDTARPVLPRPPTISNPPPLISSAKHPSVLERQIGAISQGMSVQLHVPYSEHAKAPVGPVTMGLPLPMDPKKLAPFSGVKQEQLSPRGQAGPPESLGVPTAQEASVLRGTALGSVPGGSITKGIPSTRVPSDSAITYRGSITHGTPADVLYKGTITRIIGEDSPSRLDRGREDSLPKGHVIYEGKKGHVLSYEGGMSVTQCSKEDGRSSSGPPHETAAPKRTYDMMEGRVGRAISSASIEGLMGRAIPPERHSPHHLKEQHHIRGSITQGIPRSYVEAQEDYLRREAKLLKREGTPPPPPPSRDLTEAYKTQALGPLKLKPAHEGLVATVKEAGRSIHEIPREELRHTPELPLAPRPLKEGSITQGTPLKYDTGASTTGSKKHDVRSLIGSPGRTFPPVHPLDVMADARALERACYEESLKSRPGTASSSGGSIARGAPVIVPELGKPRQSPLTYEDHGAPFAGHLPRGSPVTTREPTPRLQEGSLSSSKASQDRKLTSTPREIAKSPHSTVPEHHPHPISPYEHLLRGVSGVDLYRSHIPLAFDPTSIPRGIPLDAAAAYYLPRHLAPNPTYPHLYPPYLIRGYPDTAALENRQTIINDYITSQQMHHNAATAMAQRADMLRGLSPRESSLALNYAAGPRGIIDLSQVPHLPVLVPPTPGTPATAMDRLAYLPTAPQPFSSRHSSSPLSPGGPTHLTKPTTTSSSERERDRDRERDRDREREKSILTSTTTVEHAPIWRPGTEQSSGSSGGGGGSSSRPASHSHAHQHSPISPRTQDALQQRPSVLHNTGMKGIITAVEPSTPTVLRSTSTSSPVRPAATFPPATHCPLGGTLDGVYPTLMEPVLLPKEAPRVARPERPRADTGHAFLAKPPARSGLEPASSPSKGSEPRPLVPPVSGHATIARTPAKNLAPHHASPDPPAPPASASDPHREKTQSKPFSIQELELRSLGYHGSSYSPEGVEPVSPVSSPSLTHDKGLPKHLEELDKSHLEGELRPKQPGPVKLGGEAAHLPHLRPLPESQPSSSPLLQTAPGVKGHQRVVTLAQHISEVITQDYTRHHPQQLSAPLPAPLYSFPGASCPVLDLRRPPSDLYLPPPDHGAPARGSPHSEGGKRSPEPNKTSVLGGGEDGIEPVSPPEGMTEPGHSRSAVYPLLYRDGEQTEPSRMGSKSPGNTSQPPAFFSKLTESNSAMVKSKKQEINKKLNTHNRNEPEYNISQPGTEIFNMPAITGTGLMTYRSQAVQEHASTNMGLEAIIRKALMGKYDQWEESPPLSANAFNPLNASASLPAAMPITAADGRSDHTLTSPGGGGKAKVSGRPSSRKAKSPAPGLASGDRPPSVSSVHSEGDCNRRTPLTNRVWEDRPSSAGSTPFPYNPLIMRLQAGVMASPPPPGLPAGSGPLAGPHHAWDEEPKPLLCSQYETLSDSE
Histone deacetylase 1, sequence (Q13547 whole entry): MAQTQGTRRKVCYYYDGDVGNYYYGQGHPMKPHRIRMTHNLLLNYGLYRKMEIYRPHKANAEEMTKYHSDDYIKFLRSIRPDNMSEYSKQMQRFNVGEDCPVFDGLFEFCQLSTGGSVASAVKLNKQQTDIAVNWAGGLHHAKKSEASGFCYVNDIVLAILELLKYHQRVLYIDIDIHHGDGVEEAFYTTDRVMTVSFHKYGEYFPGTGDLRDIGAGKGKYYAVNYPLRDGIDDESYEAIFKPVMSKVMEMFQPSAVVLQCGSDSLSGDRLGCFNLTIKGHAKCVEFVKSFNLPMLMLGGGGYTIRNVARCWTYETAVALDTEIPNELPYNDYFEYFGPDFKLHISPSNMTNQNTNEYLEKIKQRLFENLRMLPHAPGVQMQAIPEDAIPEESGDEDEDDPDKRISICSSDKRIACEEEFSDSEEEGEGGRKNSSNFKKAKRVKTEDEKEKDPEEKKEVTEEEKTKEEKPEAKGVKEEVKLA
Histone deacetylase 2, sequence (Q92769 whole entry): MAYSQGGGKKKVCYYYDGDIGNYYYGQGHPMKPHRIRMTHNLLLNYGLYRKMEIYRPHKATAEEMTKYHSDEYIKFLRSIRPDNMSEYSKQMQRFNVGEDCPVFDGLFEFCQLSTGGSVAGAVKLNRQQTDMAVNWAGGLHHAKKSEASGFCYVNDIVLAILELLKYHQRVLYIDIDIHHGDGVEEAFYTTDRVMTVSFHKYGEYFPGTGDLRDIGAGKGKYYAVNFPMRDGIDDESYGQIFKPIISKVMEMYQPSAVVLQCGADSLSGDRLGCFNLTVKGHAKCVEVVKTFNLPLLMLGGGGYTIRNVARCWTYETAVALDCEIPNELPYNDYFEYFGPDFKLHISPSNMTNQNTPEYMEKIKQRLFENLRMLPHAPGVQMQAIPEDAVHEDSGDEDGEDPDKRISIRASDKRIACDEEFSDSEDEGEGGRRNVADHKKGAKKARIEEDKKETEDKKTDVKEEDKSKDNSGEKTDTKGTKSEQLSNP

Structure (SMILES) | IC50 (Histone deacetylase) [µM] | GI50 (K562) [µM] | GI50 [1] [µM] | GI50 (MCF7) [µM] | GI50 (HeLa) [µM] | IC50 [2] [µM] | IC50 (Histone deacetylase 2) [nM] | GI50 (HCT-116) [µM] | further results
CCC(=O)CCCCC[C@@H]1NC(=O)[C@H](C)N(C)C(=O)CCN(CC(C)C)C(=O)CN(Cc2ccc(C)cc2)C1=O | > 100 | – | – | – | – | – | – | – | –
CCC(=O)CCCCC[C@@H]1NC(=O)[C@H](C)N(C)C(=O)C[C@H](CC(C)C)NC(=O)[C@H](Cc2c[nH]c3ccccc23)NC1=O | – | 7 | 7.5 | 18 | 4 | > 10 | 70 | – | IC50 (Histone deacetylase 8): 2200 nM
CCC(=O)CCCCC[C@@H]1NC(=O)[C@H](CCCNC(=N)N)NC(=O)CCN(CC=C(C)C)C(=O)CN(CCc2c[nH]c3ccccc23)C1=O | 0.25 | – | – | > 50 | > 50 | > 10 | 1200 | > 50 | IC50 [3]: 270 nM; IC50 (Histone deacetylase 1): 700 nM
CCC(=O)CCCCCN1CC(=O)N(Cc2cccc3ccccc23)CC(=O)N(CC(C)C)CCC(=O)N[C@@H](C)C1=O | > 10 | – | – | – | – | – | – | – | –
CCC(=O)CCCCC[C@@H]1NC(=O)[C@H]2CCCCN2C(=O)[C@H]([C@@H](C)CC)NC(=O)[C@H](Cc2cn(OC)c3ccccc23)NC1=O [APICIDIN] | – | 1.5 | 2.7 | 5 | 2 | – | – | 1 | –
CCC(=O)CCCCC[C@@H]1NC(=O)[C@H](CCCCNC(C)=O)NC(=O)CCN(CC(C)C)C(=O)CN(CCc2c[nH]c3ccccc23)C1=O | 0.21 | 1.5 | 10 | > 50 | 38 | > 10 | 370 | 50 | IC50 [3]: 320 nM; IC50 (Histone deacetylase 1): 200 nM
CCC(=O)CCCCC[C@@H]1NC(=O)[C@H](C)N(C)C(=O)CCN(CC(C)C)C(=O)CN(CCc2ccccc2)C1=O | > 100 | – | – | – | – | – | – | – | –
CCC(=O)CCCCC[C@@H]1NC(=O)[C@H](C)N(C)C(=O)CCN(CC(C)C)C(=O)CN(Cc2ccccc2)C1=O | > 100 | – | – | – | – | – | – | – | –
CCC(=O)CCCCC[C@@H]1NC(=O)[C@H](C)N(C)C(=O)CCN(CC(C)C)C(=O)[C@H](Cc2c[nH]c3ccccc23)NC1=O | > 10 | – | – | – | – | – | – | – | –
CCC(=O)CCCCC[C@@H]1NC(=O)[C@H](C)N(C)C(=O)CCN(CC(C)C)C(=O)CN(Cc2cccc3ccccc23)C1=O | 18 | – | – | – | – | – | – | – | –
CCC(=O)CCCCC[C@@H]1NC(=O)[C@H](C)N(C)C(=O)CCN(CC(C)C)C(=O)CN(CCc2c[nH]c3ccccc23)C1=O | 1 | 15 | 18 | > 50 | 30 | > 10 | 2000 | 28 | IC50 [3]: 650 nM; IC50 (Histone deacetylase 1): 540 nM
CCC(=O)CCCCCN1CC(=O)N(CCc2c[nH]c3ccccc23)CC(=O)N(CC(C)C)CCC(=O)N(C)[C@@H](C)C1=O | > 10 | – | – | – | – | – | – | – | –
CCC(=O)CCCCC[C@@H]1NC(=O)[C@H](CCCNC(=N)N)NC(=O)CCN(CC(C)C)C(=O)CN(CCc2c[nH]c3ccccc23)C1=O | 0.06 | > 50 | > 50 | > 50 | > 50 | > 10 | 300 | > 50 | IC50 (Histone deacetylase 8): 750 nM; IC50 [3]: 100 nM; IC50 (Histone deacetylase 1): 180 nM; inhibition [4]: inactive; inhibition [5]: Active
CCC(=O)CCCCC[C@@H]1NC(=O)[C@H](C)N(C)C(=O)CCN(CC(C)C)C(=O)CN(CC2CCCCC2)C1=O | > 100 | – | – | – | – | – | – | – | –
CCC(=O)CCCCC[C@@H]1NC(=O)[C@H](C)N(C)C(=O)C[C@H](CC(C)C)NC(=O)CN(CCc2c[nH]c3ccccc23)C1=O | > 10 | – | – | – | – | – | – | – | –
